# Assay results from patent US9908875B2, “Apoptosis signal-regulating kinase inhibitors” (Gilead Sciences, Inc., priority 2013, dated 2018).
# Target: recombinant human ASK1 kinase (Homo sapiens (Human), UniProt Q99683)
# Test: TR-FRET ASK1 (Apoptosis Signal-Regulating Kinase 1) kinase assay
# Format: biochemical
# Settings: 4 nM ASK1, 1 μM STK3 peptide substrate, 100 μM ATP, HTRF detection; average of quadruplicate determination; read-out: IC50 (nM), activities of the compounds of Formula (I) to ASK1
# Description: I. TR-FRET ASK1 (Apoptosis Signal-Regulating Kinase 1) Kinase Assay
# To evaluate the inhibitory activity of compounds of the invention against ASK1 (Apoptosis Signal-regulating Kinase 1) kinase, its activity was examined using a TR-FRET ASK1 kinase assay which determined the amount of phosphate transferred to a peptide substrate from ATP.
# Dephosphorylated recombinant human ASK1 kinase was from Gilead Sciences. Small molecule kinase inhibitor staurosporine (Catalogue #S6942) and dithiothreitol (DTT, catalogue #43815-5G) were obtained from Sigma Chemicals (St. Louis, Mo.). ATP (catalogue #7724) was from Affymetrix (Santa Clara, Calif.) and test compounds were from Gilead Sciences. HTRF KinEASE™-STK S3 kit was obtained from Cisbio (Bedford, Mass.). All other reagents were of the highest grade commercially available.
# The assay measures the phosphorylation level of a biotinylated peptide substrate by the ASK1 kinase using HTRF detection. This is a competitive, time-resolved fluorescence resonance energy transfer (TR-FRET) immunoassay, based on HTRF® KinEASE™-STK manual from Cisbio. Test compound, 1 μM STK3 peptide substrate, 4 nM of ASK1 kinase were incubated with 10 mM MOP buffer, pH. 7.0 containing 10 mM Mg-acetate, 0.025% NP-40, 1 mM DTT, 0.05% BSA and 1.5% glycerol for 30 minutes then 100 μM ATP was added to start the kinase reaction and incubated for 3 hr. Peptide antibody labeled with 1× Eu^3+ Cryptate buffer containing 10 mM EDTA and 125 nM Streptavidin XL665 were added to stop the reaction and phosphorylated peptide substrate was detected using Envision 2103 Multilabeled reader from PerkinElmer. The fluorescence was measured at 615 nm (Cryptate) and 665 nm (XL665) and a ratio of 665 nm/615 nm was calculated for each well. The resulting TR-FRET level (a ratio of 665 nm/615 nm) was proportional to the phosphorylation level. Under these assay conditions, the degree of phosphorylation of peptide substrate was linear with time and concentration for the enzyme. The assay system yielded consistent results with regard to Km and specific activities for the enzyme. For inhibition experiments (IC50 values), activities were performed with constant concentrations of ATP, peptide and several fixed concentrations of inhibitors. Staurosporine, the nonselective kinase inhibitor, was used as the positive control. All enzyme activity data are reported as an average of quadruplicate determination.
# The IC50 values were calculated following equation: y=Range/{1+(x/IC50)^s}+Background where x and y represent the concentration of inhibitors and enzyme activity, respectively. Enzyme activity is expressed as the amount of Phosphate incorporated into substrate peptide from ATP. Range is the maximum y range (no inhibitor, DMSO control) and s is a slope factor.
# recombinant human ASK1 kinase, sequence (Q99683 whole entry): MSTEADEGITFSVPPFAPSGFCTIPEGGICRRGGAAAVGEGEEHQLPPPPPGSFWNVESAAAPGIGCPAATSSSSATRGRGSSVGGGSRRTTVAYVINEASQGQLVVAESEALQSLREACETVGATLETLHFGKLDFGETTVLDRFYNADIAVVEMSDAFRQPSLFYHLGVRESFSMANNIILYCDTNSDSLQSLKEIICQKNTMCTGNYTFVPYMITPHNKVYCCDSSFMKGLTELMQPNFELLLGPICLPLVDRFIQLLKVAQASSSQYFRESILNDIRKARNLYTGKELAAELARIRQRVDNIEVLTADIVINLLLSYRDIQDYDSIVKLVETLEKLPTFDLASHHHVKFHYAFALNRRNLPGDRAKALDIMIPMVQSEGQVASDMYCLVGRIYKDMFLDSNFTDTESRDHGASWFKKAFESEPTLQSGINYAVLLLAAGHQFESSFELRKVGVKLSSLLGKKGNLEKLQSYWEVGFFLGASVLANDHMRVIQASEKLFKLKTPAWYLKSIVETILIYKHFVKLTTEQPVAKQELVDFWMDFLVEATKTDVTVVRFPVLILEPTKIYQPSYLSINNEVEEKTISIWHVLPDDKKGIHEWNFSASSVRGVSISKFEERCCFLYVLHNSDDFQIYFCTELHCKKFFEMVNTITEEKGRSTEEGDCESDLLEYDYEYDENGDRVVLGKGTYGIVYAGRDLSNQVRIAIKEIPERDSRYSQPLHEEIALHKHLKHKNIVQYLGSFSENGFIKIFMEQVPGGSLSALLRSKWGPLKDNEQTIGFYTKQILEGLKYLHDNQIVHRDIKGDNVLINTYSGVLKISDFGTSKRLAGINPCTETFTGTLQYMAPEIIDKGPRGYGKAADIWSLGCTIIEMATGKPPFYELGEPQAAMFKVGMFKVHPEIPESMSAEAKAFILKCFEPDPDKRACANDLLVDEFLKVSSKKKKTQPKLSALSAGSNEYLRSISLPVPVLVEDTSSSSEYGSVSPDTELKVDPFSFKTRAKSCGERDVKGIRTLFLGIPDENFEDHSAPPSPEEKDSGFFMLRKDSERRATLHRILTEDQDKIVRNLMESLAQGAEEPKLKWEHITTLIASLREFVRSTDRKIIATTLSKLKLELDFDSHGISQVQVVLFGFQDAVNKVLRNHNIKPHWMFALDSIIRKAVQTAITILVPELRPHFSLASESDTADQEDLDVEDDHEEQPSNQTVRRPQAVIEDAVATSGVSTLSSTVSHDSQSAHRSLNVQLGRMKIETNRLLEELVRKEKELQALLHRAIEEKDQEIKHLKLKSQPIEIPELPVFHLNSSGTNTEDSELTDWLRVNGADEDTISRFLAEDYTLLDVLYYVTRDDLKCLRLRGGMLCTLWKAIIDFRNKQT
row,IC50 [nM],Compound
1,2.7,"O=C(Nc1csc(-c2nncn2C2CC2)n1)c1cc(-n2cnc(C3CC3)c2)c(N2CCN3CCCC3C2)cn1 (stereo not shown) [Compound 15, 5-(3,4,6,7,8,8a-hexahydro-1H-pyrrolo[1,2-a]pyrazin-2-yl)-4-(4-cyclopropylimidazol-1-yl)-N-[2-(4-cyclopropyl-1,2,4-triazol-3-yl)-1,3-thiazol-4-yl]pyridine-2-carboxamide]"
2,1.4,"C[C@H](n1cnnc1-c1nc(NC(=O)c2cc(-n3cnc(C4CC4)c3)c(N3CC(C)(C#N)C3)cn2)cs1)C(F)(F)F [Compound 24, (S)-5-(3-cyano-3-methylazetidin-1-yl)-4-(4-cyclopropyl-1H-imidazol-1-yl)-N-(2-(4-(1,1,1-trifluoropropan-2-yl)-4H-1,2,4-triazol-3-yl)thiazol-4-yl)picolinamide]"
3,1.9,"COC1CCN(c2cnc(C(=O)Nc3csc(-c4nncn4[C@@H](C)C(F)(F)F)n3)cc2-n2cnc(C3CC3)c2)C1 (stereo partly drawn) [Compound 28, 4-(4-cyclopropyl-1H-imidazol-1-yl)-5-(3-methoxypyrrolidin-1-yl)-N-(2-(4-((S)-1,1,1-trifluoropropan-2-yl)-4H-1,2,4-triazol-3-yl)thiazol-4-yl)picolinamide]"
4,1.2,"C[C@H](n1cnnc1-c1nc(NC(=O)c2cc(-n3cnc(C4CC4)c3)c(N3CCN(CC(F)(F)F)CC3)cn2)cs1)C(F)(F)F [Compound 33, (S)-4-(4-cyclopropyl-1H-imidazol-1-yl)-5-(4-(2,2,2-trifluoroethyl)piperazin-1-yl)-N-(2-(4-(1,1,1-trifluoropropan-2-yl)-4H-1,2,4-triazol-3-yl)thiazol-4-yl)picolinamide]"
